# Data reported in patent US10344019B2 (priority 2010, dated 2019).
# pEC50: −log10 of the molar value. Like-named read-outs stand apart in the source and are kept apart here.
# Key:
# Assay type in all cases: cell-based
# [1] = tested on: HCV 2a Rluc cells (NS5A chimeric genotype 2a JFH-1 replicon with genotype 2a J6 strain NS5A gene, M31 present); assay: HCV replicon reporter assay, genotype 2a J6 (M31 present); conditions: read-out: 2a J6
# In short: (§1)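 Replicons used: genotype 1b Con1, 1a H77, 2a JFH-1, and a 2a JFH-1 chimera with J6-strain NS5A (M31 present), all dicistronic.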
# [2] = tested on: Q30R in genotype 1a NS5A, 1a Rluc replicon transfected into Huh-7 cured-51 cells; assay: HCV replicon assay, resistance mutant 1a Q30R
# Protocol: Evaluation of cell-based anti-HCV activity: Antiviral potency (EC50) was determined using a Renilla luciferase (RLuc)-based HCV replicon reporter assay. To perform the assay for genotype 1 and 2a JFH-1, HCV 1b RLuc cells (harboring a dicistronic genotype 1b Con1 replicon that encodes a RLuc reporter), or HCV 1a RLuc cells (harboring a dicistronic genotype 1a H77 replicon that encodes a RLuc reporter), or HCV 2a JFH-1 Rluc cells (harboring a dicistronic genotype 2a JFH-1 replicon that encodes a RLuc reporter) were dispensed into 384-well plates. To perform the assay for genotype 2a (with M31 present) or 2b, HCV 2a Rluc or 2b Rluc cells (both with M31 present) harboring a dicistronic NS5A chimeric genotype 2a JFH-1 replicon that encodes a RLuc reporter and either genotype 2a J6 strain NS5A gene or genotype 2b MD2b-1 NS5A gene (based on Los Alamos HCV database isolates, both with M31 present) respectively, were dispensed into 384-well plates. To perform the assay for genotype 3 and 4, HCV 3a RLuc or 4a Rluc cells harboring a dicistronic NS5A chimeric genotype 1b Con1 replicon that encodes a RLuc reporter and either a consensus genotype 3a NS5A gene or genotype 4a NS5A gene (based on Los Alamos HCV database isolates) respectively, were dispensed into 384-well plates. Compounds were re-suspended in DMSO at a concentration of 10 mM and serially diluted in DMSO either manually or using an automated pipeting instrument. Serially diluted compounds were mixed with cell culture media and added to the seeded cells. […] 72 hours later, cells were lysed and Renilla luciferase activity quantified as recommended by the manufacturer (Promega-Madison, Wis.). Non-linear regression was performed to calculate EC50 values.
# To determine the antiviral potency (EC50) against resistance mutants, resistance mutations, including M28T, Q30R, Q30H, L31M, and Y93C in genotype 1a NS5A and Y93H in genotype 1b NS5A, were introduced individually into either 1a Rluc or 1b Rluc replicons described above by site directed mutagenesis. Replicon RNA of each resistant mutant was transfected into Huh-7 cured-51 cells and antiviral potency was determined on these transfected cells as described above.
# [3] = tested on: HCV 2a JFH-1 Rluc cells (dicistronic genotype 2a JFH-1 replicon, RLuc reporter); assay: microbe, parasite or virus in culture; conditions: Hepatitis C virus, genotype 2a JFH-1 RLuc replicon; read-out: 2a JFH
# In short: as §1
# [4] = tested on: HCV 4a Rluc cells (NS5A chimeric genotype 1b Con1 replicon with genotype 4a NS5A gene); assay: microbe, parasite or virus in culture; conditions: read-out: 4a
# In short: (§2)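 Replicon cells stably carrying the listed RLuc-encoding dicistronic replicons were seeded and treated with DMSO serial dilutions of compound (10 mM stocks) diluted into culture medium. After 72 h, cells were lysed and Renilla luciferase activity measured. EC50 was derived by non-linear regression.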
# [5] = tested on: HCV 2b Rluc cells (NS5A chimeric genotype 2a JFH-1 replicon with genotype 2b MD2b-1 NS5A gene, M31 present); assay: microbe, parasite or virus in culture; conditions: read-out: 2b
# In short: as §2
# [6] = tested on: HCV 3a RLuc cells (NS5A chimeric genotype 1b Con1 replicon with consensus genotype 3a NS5A gene); assay: microbe, parasite or virus in culture; conditions: Hepatitis C virus, read-out: 3a, genotype 3a NS5A chimeric replicon
# In short: as §2
# [7] = tested on: HCV 1a RLuc cells (dicistronic genotype 1a H77 replicon, RLuc reporter); assay: microbe, parasite or virus in culture; conditions: Hepatitis C virus, genotype 1a H77 RLuc replicon; read-out: 1a
# In short: as §1
# [8] = tested on: HCV 1b RLuc cells (dicistronic genotype 1b Con1 replicon, RLuc reporter); assay: microbe, parasite or virus in culture; conditions: Hepatitis C virus, read-out: 1b (nM)
# In short: as §1
# [9] = Hepatitis C virus, Huh-7, read-out: 1a Q30R
Structure (SMILES),pEC50 ([1]; Hepatitis C virus),"pEC50 [2, 9]",pEC50 [3],pEC50 ([4]; Hepatitis C virus),pEC50 ([5]; Hepatitis C virus),pEC50 [6],pEC50 [7],EC50 [8] [nM],"pEC50 ([1]; genotype 2a J6 NS5A chimeric replicon, M31 present)","pEC50 ([2]; read-out: 1a Q30R, genotype 1a NS5A Q30R resistance mutant)",pEC50 ([4]; genotype 4a NS5A chimeric replicon),"pEC50 ([5]; genotype 2b NS5A chimeric replicon, M31 present)"
COC(=O)N[C@H](C(=O)N1CCC[C@H]1c1ncc(-c2ccc3c(c2)COc2cc4c(ccc5nc([C@@H]6CCCN6C(=O)[C@H](NC(=O)OC)c6ccccc6)[nH]c54)cc2-3)[nH]1)[C@@H](C)OC [Example 588],9.00 to 12.00,9.00 to 12.00,9.00 to 12.00,9.00 to 12.00,9.00 to 12.00,9.00 to 12.00,9.00 to 12.00,–,–,–,–,–
COC(=O)N[C@H](C(=O)N1C[C@@H](COC(F)F)C[C@H]1c1nc2ccc3cc4c(cc3c2[nH]1)OCc1cc(-c2cnc([C@@H]3CCCN3C(=O)[C@H](NC(=O)OC)c3ccccc3)[nH]2)ccc1-4)C(C)C [Example 558],9.00 to 12.00,9.00 to 12.00,9.00 to 12.00,9.00 to 12.00,9.00 to 12.00,–,9.00 to 12.00,0.014,–,–,–,–
COC(=O)N[C@H](C(=O)N1CCC[C@H]1c1ncc(-c2ccc3c(c2)COc2cc4c(ccc5nc([C@@H]6C[C@H](C)CN6C(=O)[C@H](NC(=O)OC)c6ccccc6)[nH]c54)cc2-3)[nH]1)C(C)C [Example 543],9.00 to 12.00,9.00 to 12.00,9.00 to 12.00,9.00 to 12.00,9.00 to 12.00,9.00 to 12.00,9.00 to 12.00,–,–,–,–,–
COC[C@H]1C[C@@H](c2nc3ccc4cc(-c5ccc6c(ccc7nc([C@@H]8CCCN8C(=O)[C@@H](NC(=O)OC)C(C)C)[nH]c76)c5)ccc4c3[nH]2)N(C(=O)[C@H](NC(=O)OC)c2ccccc2)C1 [Example 540],–,–,9.00 to 12.00,–,–,9.00 to 12.00,9.00 to 12.00,–,9.00 to 12.00,9.00 to 12.00,9.00 to 12.00,9.00 to 12.00
COC[C@H]1C[C@@H](c2nc3ccc4cc5c(cc4c3[nH]2)OCc2cc(-c3cnc([C@@H]4C[C@H](C)CN4C(=O)[C@H](NC(=O)OC)c4ccccc4)[nH]3)ccc2-5)N(C(=O)[C@@H](NC(=O)OC)C(C)C)C1 [Example 572],9.00 to 12.00,9.00 to 12.00,9.00 to 12.00,9.00 to 12.00,9.00 to 12.00,9.00 to 12.00,9.00 to 12.00,–,–,–,–,–
COC[C@H]1C[C@@H](c2ncc(-c3ccc4c(c3)COc3cc5c(ccc6nc([C@@H]7CC[C@H](C)N7C(=O)[C@@H](NC(=O)OC)C(C)C)[nH]c65)cc3-4)[nH]2)N(C(=O)[C@@H](NC(=O)OC)[C@@H](C)OC)C1 [Example 610],9.00 to 12.00,9.00 to 12.00,9.00 to 12.00,–,9.00 to 12.00,9.00 to 12.00,9.00 to 12.00,0.013,–,–,–,–
COC[C@H]1C[C@@H](c2ncc(-c3ccc4c(c3)COc3cc5c(ccc6nc([C@@H]7C[C@H]8CC8N7C(=O)[C@H](NC(=O)OC)c7ccccc7)[nH]c65)cc3-4)[nH]2)N(C(=O)[C@@H](NC(=O)OC)C(C)C)C1 (some centres unmarked) [Example 601],9.00 to 12.00,9.00 to 12.00,9.00 to 12.00,–,9.00 to 12.00,9.00 to 12.00,9.00 to 12.00,0.014,–,–,–,–
CC#Cc1cc2nc([C@@H]3CCCN3C(=O)[C@@H](NC(=O)OC)C(C)C)[nH]c2c2ccc(-c3ccc4c(ccc5nc([C@@H]6C[C@H](COC)CN6C(=O)[C@H](N)c6ccccc6)[nH]c54)c3)cc12 [Example 593],9.00 to 12.00,7.36 to 9.00,9.00 to 12.00,–,7.36 to 9.00,9.00 to 12.00,9.00 to 12.00,0.014,–,–,–,–
COC[C@H]1C[C@@H](c2ncc(-c3ccc4c(c3)COc3cc5c(ccc6nc([C@@H]7CCCN7C(=O)[C@H](NC(=O)OC)c7ccccc7)[nH]c65)cc3-4)[nH]2)N(C(=O)[C@@H](NC(=O)OC)C(C)C)C1 [Example 625],9.00 to 12.00,9.00 to 12.00,9.00 to 12.00,–,9.00 to 12.00,9.00 to 12.00,9.00 to 12.00,0.031,–,–,–,–
COC[C@H]1C[C@@H](c2ncc(-c3cc4c5c(c3)OCc3cc(-c6cnc([C@@H]7C[C@H](C)CN7C(=O)[C@H](NC(=O)OC)c7ccccc7)[nH]6)cc(c3-5)OC4)[nH]2)N(C(=O)[C@@H](NC(=O)OC)C(C)C)C1 [Example 611],9.00 to 12.00,9.00 to 12.00,9.00 to 12.00,–,9.00 to 12.00,9.00 to 12.00,9.00 to 12.00,0.013,–,–,–,–
COC[C@H]1C[C@@H](c2nc3ccc4cc5c(cc4c3[nH]2)OCc2cc(-c3cnc([C@@H]4CCCN4C(O)[C@@H](NC(=O)OC)[C@@H](C)OC)[nH]3)ccc2-5)N(C(=O)[C@H](NC(=O)OC)c2ccccc2)C1 (some centres unmarked) [Example 618],9.00 to 12.00,9.00 to 12.00,9.00 to 12.00,–,9.00 to 12.00,9.00 to 12.00,9.00 to 12.00,0.02,–,–,–,–
COC[C@H]1C[C@@H](c2ncc(-c3ccc4c(c3)COc3cc5c(ccc6nc([C@@H]7C[C@@H]8C[C@@H]8N7C(=O)[C@@H](NC(=O)OC)C(C)C)[nH]c65)cc3-4)[nH]2)N(C(=O)[C@H](NC(=O)OC)c2ccccc2)C1 [Example 636],9.00 to 12.00,9.00 to 12.00,9.00 to 12.00,–,9.00 to 12.00,9.00 to 12.00,9.00 to 12.00,0.011,–,–,–,–
COC[C@H]1C[C@@H](c2ncc(-c3ccc4c(c3)COc3cc5c(ccc6nc([C@@H]7C[C@H](C)CN7C(=O)[C@@H](NC(=O)OC)C(C)C)[nH]c65)cc3-4)[nH]2)N(C(=O)[C@H](NC(=O)OC)c2ccccc2)C1 [Example 622],9.00 to 12.00,9.00 to 12.00,9.00 to 12.00,–,9.00 to 12.00,9.00 to 12.00,9.00 to 12.00,0.016,–,–,–,–
COC(=O)N[C@H](C(=O)N1[C@@H](C)CC[C@H]1c1ncc(-c2ccc3c(c2)COc2cc4c(ccc5nc([C@@H]6C[C@H](C)CN6C(=O)[C@H](NC(=O)OC)c6ccccc6)[nH]c54)cc2-3)[nH]1)C(C)C [Example 617],9.00 to 12.00,9.00 to 12.00,9.00 to 12.00,–,9.00 to 12.00,9.00 to 12.00,9.00 to 12.00,0.005,–,–,–,–
